Converted amounts (≈) assume the structure as drawn. Where two headings read alike, the source gives them in different places.
Experiments:
[1] = tested on: Klebsiella pneumonia MTCC 618; test: in vitro antibacterial activity, dilution MIC (CLSI M07-A10); format: cell-based; details: Klebsiella pneumoniae, MTCC618
[2] = tested on: Staphylococcus aureus ATCC 29213; test: as above; format: cell-based; details: ATCC29213
[3] = tested on: Bacillus subtilis MTCC 441; test: as above; format: cell-based; details: MTCC441
[4] = tested on: Pseudomonas aeruginosa MTCC 741; test: as above; format: cell-based; details: MTCC741
[5] = tested on: Enterococcus faecium ATCC 51559 (VRE resistant); test: as above; format: cell-based
[6] = tested on: Staphylococcus epidermidis; test: as above; format: cell-based
[7] = tested on: Escherichia coli MTCC 443; test: as above; format: cell-based; details: MTCC443
[8] = tested on: H37Rv type of M. tuberculosis strains; test: antitubercular alamar blue microplate MIC assay; format: cell-based; details: mycobacterium tuberculosis H37Rv strain, read-out: anti-mycobacterial activity (MIC)
DNA gyrase from E. coli = target: T1, DNA gyrase from E. coli (Escherichia coli, UniProt P0AES4+P0AES6); test: Inhibitory activities on E. coli DNA Gyrase (Inspiralis assay); format: biochemical
T1 construct: purchased Inspiralis
Procedure: First, the plates were rehydrated with buffer (20 mM Tris-HCl with pH 7.6, 0.01% w/v BSA, 0.05% v/v Tween 20, 137 mM NaCl) and the biotinylated oligonucleotide was then immobilized. After washing off the unbound oligonucleotide, the enzyme test was performed. […] Reaction solutions were incubated at 37° C. for 30 min. After that, the TF buffer (50 mM NaOAc with pH 5.0, 50 mM NaCl and 50 mM MgCl2) was added to terminate the enzymatic reaction. After additional incubation for 30 min at rt, during which biotinoligonucleotide-plasmid triplex was formed, the unbound plasmid was washed off using TF buffer and SybrGOLD in T10 buffer (10 mM Tris HCl with pH 8.0 and 1 mM EDTA) was added. The fluorescence was measured with a microplate reader (BioTek Synergy H4, excitation: 485 nm, emission: 535 nm). Initial screening was done at 100 or 10 μM concentration of inhibitors. […] GraphPad Prism software was used to calculate the IC50 values. The result is given as the average value of three independent measurements.

[9] = tested on: Staphylococcus aureus ATCC BAA-1556 (MERSA resistant); test: in vitro antibacterial activity, dilution MIC (CLSI M07-A10); format: cell-based; details: ATCCBAA1556
[10] = tested on: Enterococcus faecium ATCC 35667; test: as above; format: cell-based; details: ATCC35667

T1 sequence (P0AES4 whole entry, one chain of several): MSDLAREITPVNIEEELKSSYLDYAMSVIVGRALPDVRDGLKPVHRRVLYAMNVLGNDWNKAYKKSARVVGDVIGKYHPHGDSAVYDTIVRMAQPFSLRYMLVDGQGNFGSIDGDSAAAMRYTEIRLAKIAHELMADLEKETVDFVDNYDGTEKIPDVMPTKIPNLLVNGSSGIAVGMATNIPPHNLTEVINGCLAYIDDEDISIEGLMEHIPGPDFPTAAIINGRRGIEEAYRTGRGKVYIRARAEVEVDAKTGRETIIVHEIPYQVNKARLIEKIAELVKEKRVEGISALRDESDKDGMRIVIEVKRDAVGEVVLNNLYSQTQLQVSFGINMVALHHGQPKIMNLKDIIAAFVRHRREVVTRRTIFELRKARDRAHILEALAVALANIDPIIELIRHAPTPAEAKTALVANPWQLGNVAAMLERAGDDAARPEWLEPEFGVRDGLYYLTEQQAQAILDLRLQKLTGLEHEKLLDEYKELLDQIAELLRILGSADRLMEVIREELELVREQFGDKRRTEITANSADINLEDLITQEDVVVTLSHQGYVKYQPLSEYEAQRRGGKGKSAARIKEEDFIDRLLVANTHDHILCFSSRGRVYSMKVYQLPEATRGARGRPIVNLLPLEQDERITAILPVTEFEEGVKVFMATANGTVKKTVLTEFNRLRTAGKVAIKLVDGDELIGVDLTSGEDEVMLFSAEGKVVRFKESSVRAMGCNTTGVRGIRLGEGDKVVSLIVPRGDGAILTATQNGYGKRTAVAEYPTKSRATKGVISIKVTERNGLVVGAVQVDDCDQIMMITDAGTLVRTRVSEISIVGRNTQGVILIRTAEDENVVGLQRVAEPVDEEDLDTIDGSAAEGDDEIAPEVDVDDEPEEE

Row | SMILES | MIC [1] [µg/mL] | MIC ([1]; Klebsiella pneumonia MTCC 618, read-out: MIC) [µg/mL] | MIC [2] [µg/mL] | MIC [3] [µg/mL] | MIC [4] [µg/mL] | MIC [5] [µg/mL] | MIC [6] [µg/mL] | MIC [7] [µg/mL] | MIC [8] [µg/mL] | IC50 (DNA gyrase from E. coli) [nM] | MIC [9] [µg/mL] | MIC [10] [µg/mL]
1 | CN[C@H](CC(C)C)C(=O)N[C@H]1C(=O)N[C@@H](CC(N)=O)C(=O)N[C@H]2C(=O)N[C@H]3C(=O)N[C@H](C(=O)N[C@H](C(=O)O)c4cc(O)cc(O)c4-c4cc3ccc4O)[C@H](O)c3ccc(c(Cl)c3)Oc3cc2cc(c3O[C@@H]2O[C@H](CO)[C@@H](O)[C@H](O)[C@H]2O[C@H]2C[C@](C)(N)[C@H](O)[C@H](C)O2)Oc2ccc(cc2Cl)[C@H]1O [Vancomycin, reference compound] | > 128 |  |  |  |  |  |  |  |  |  |  | 
2 | CCCCCN(C)Cc1ccc(C(=O)O)cc1-c1cnc2[nH]c3c(NC)cc(F)cc3c(=O)c2c1 [Compound 8, 3-(7-fluoro-9-(methylamino)-5-oxo-5,10-dihydrobenzo[b][1,8]naphthyridin-3-yl)-4-((methyl(pentyl)amino)methyl)benzoic acid] |  | 0.75 (≈ 1.57 µM) | 0.75 (≈ 1.57 µM) | 0.5 (≈ 1.05 µM) | 0.5 (≈ 1.05 µM) | 0.1 (≈ 0.21 µM) | 1 (≈ 2.1 µM) | 2 (≈ 4.2 µM) | 4 (≈ 8.39 µM) | 11 | 0.75 (≈ 1.57 µM) | 0.1 (≈ 0.21 µM)

— patent US11866412B1, “Acridin-9-one compounds as antibacterial agents” (KING FAISAL UNIVERSITY, priority 2023, dated 2024)
